Activity calls are given as the source filed them. No cut-off for these calls is given here.
Columns and labels:
Trypanosoma cruzi = experiment: Antiparasitic activity against Trypanosoma cruzi amastigotes; format: functional, organism-based
Leishmania infantum = experiment: Antiparasitic activity against Leishmania infantum amastigotes; format: functional, organism-based
MRC5 = experiment: Cytotoxicity against human MRC5 cells; format: cell-based
Plasmodium falciparum = experiment: Antiparasitic activity against Plasmodium falciparum ring stage and schizont; format: functional, organism-based
Metacaspase-2 = biological target: T1, Metacaspase-2 (Trypanosoma brucei, UniProt Q8T8E7); experiment: Inhibition of Trypanosoma brucei MAC2
T1 sequence (Q8T8E7 whole entry): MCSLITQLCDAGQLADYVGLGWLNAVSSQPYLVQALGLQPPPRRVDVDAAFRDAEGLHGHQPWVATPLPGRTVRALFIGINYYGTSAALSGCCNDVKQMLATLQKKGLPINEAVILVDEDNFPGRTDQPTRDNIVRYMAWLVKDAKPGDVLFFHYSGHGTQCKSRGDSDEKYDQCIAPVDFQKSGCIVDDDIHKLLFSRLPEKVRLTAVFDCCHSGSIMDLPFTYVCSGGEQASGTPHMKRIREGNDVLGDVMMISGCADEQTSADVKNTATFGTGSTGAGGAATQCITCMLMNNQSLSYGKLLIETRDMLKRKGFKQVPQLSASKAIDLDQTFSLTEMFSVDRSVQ

[1] = system: Trypanosoma brucei brucei; experiment: Antiparasitic activity against Trypanosoma brucei brucei bloodstream form; format: functional, organism-based
[2] = biological target: T2, Metacaspase-3 (Trypanosoma brucei) (UniProt Q8T8E6); experiment: Inhibition of Trypanosoma brucei MAC3
T2 sequence (whole entry): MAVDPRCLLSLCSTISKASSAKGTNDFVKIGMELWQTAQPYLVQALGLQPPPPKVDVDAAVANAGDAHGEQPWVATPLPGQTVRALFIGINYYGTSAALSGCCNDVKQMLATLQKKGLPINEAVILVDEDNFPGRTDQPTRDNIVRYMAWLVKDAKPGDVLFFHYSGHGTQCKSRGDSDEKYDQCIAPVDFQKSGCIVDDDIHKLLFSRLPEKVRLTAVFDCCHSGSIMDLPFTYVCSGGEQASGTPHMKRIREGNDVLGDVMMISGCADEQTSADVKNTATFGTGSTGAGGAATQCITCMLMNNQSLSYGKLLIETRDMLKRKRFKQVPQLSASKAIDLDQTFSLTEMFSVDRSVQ

Caspase-3 (Homo sapiens) = biological target: T3, Caspase-3 (Homo sapiens) (UniProt P42574); experiment: Inhibition of human caspase 3
T3 sequence (whole entry): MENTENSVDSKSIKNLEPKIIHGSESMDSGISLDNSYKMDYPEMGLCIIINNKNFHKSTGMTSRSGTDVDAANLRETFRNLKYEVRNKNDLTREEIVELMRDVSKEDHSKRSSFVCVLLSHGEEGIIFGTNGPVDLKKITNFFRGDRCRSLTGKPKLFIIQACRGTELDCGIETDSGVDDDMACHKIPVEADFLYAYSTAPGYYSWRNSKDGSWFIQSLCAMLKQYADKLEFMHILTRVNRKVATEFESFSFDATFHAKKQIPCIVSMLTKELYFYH

| Compound | IC50 (Trypanosoma cruzi) [µM] | IC50 (Leishmania infantum) [µM] | IC50 (MRC5) [µM] | IC50 (Plasmodium falciparum) [µM] | IC50 (Metacaspase-2) [µM] | IC50 [1] [µM] | inhibition [2] | inhibition (Caspase-3 (Homo sapiens)) |
| --- | --- | --- | --- | --- | --- | --- | --- | --- |
| N#CCN(CCCCN1CCN(c2ccc(F)cc2)CC1)C(=O)OCc1ccccc1 | 7 | > 64 | > 64 | > 64 | > 100 | 22.6 |  |  |
| N#CCN(CCCCn1ccnc1)C(=O)OCc1ccccc1 | 35.7 | > 64 | > 64 | 17.2 | > 100 | > 64 |  |  |
| N=C(N)NCCC[C@H](NC(=O)OCc1ccccc1)C(=O)c1nccs1 | 38.7 | > 64 | > 64 | 24.7 | 2.2 | > 64 | Active |  |
| CC(C)C(NC(=O)OCc1ccccc1)C(=O)N[C@@H](CCCNC(=N)N)C(=O)c1nc2ccccc2s1 (some centres not stated) | 7.3 | > 64 | 32.6 | 3.3 | 1.1 | 11.2 |  |  |
| N#CCN(C(=O)OCc1ccccc1)C1CCNCC1 | 34.6 | > 64 | > 64 | 28 | > 100 | 32.5 |  |  |
| N#CCN(CCCCN1CCCCC1)C(=O)OCc1ccccc1 | > 64 | > 64 | > 64 | 6.9 | > 100 | > 64 |  |  |
| N#CCN(CCCCN1CCCC1)C(=O)OCc1ccccc1 | > 64 | > 64 | > 64 | 20.5 | > 100 | 52.1 |  |  |
| N#C[C@H](CCCNC(=N)N)NC(=O)OCc1ccccc1 | > 64 | > 64 | > 64 | 50.2 | 1.9 | > 64 | Active | inactive |
| NCCCC[C@H](NC(=O)OCc1ccccc1)C(=O)c1nc2ccccc2s1 | 10.8 | 22.8 | 20 | 3 | 1.6 | 10.6 |  |  |
| N=C(N)NCCC[C@H](NC(=O)OCc1ccccc1)C(=O)c1ccccn1 | > 64 | > 64 | > 64 | > 64 | 62 | > 64 | Active |  |
| Cn1c(C(=O)[C@H](CCCNC(=N)N)NC(=O)OCc2ccccc2)nc2ccccc21 | 28.3 | > 64 | > 64 | 7.1 | 38.4 | 32.5 | Active | inactive |
| N#C[C@H](Cc1ccc(NC(=N)N)cc1)NC(=O)OCc1ccccc1 | 27.2 | > 64 | > 64 | 25.4 | > 100 | > 64 |  |  |
| N=C(N)NCCC[C@@H](/C=C/S(=O)(=O)c1ccccc1)NC(=O)OCc1ccccc1 | 19 | > 64 | > 64 | 3.4 | 3.9 | 45.3 |  |  |
| N#C[C@H](Cc1ccc(N)cc1)NC(=O)OCc1ccccc1 | 28.6 | > 64 | > 64 | 16.6 | > 100 | 30.3 |  |  |
| N#CCN(CCCCN1CCN(C(c2ccc(F)cc2)c2ccc(F)cc2)CC1)C(=O)OCc1ccccc1 | 2.6 | 5.9 | 11.3 | 7.6 | > 100 | 2.1 |  |  |
| N#CCN(CCCCO)C(=O)OCc1ccccc1 | > 64 | > 64 | > 64 | > 64 | > 100 | > 64 |  |  |
| NC(N)=NCCCC[C@H](NC(=O)OCc1ccccc1)C(=O)c1nc2ccccc2s1 | 5.5 | 45.4 | 19 | 5.6 | 4 | 11.4 |  |  |
| CC(C)CC(NC(=O)OCc1ccccc1)C(=O)N[C@@H](CCCNC(=N)N)C(=O)c1nc2ccccc2s1 (some centres not stated) | 5.6 | 36.8 | 29 | 2.6 | 1.4 | 5.7 |  |  |
| N=C(N)NCCC[C@H](NC(=O)OCc1ccccc1)C(=O)c1nc2ccccc2s1 | 20.9 | > 64 | > 64 | 8 | 0.6 | 32.9 | Active | inactive |

Source: ChEMBL document CHEMBL1155398, “Design and evaluation of Trypanosoma brucei metacaspase inhibitors” (Bioorg Med Chem Lett, 2010)
